Measurements: patent US8207177B2, “Inhibitors of E1 activating enzymes” (Millennium Pharmaceuticals, Inc., priority 2006, dated 2012)
pIC50: −log10 of the molar value.

Target: T1, recombinant human NAE enzyme (Homo sapiens, UniProt Q8TBC4)
T1 construct: His (N); made in house; host or cells: Sf9 insect cells (baculovirus, Bac-to-Bac), purified on Ni-NTA
T1 sequence (Q8TBC4 1-463): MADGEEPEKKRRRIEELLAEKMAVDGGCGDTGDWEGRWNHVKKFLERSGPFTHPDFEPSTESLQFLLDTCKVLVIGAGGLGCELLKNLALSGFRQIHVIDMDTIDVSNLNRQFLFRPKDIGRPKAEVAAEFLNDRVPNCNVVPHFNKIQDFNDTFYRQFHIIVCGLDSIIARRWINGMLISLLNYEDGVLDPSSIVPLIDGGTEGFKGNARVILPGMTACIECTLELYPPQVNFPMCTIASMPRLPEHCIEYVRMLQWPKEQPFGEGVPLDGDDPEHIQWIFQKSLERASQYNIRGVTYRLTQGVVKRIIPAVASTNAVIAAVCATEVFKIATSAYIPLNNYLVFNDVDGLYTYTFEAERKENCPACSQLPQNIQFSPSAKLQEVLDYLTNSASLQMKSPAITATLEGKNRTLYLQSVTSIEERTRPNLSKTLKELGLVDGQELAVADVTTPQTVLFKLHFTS
T1 sequence (Q13564 1-534 partner): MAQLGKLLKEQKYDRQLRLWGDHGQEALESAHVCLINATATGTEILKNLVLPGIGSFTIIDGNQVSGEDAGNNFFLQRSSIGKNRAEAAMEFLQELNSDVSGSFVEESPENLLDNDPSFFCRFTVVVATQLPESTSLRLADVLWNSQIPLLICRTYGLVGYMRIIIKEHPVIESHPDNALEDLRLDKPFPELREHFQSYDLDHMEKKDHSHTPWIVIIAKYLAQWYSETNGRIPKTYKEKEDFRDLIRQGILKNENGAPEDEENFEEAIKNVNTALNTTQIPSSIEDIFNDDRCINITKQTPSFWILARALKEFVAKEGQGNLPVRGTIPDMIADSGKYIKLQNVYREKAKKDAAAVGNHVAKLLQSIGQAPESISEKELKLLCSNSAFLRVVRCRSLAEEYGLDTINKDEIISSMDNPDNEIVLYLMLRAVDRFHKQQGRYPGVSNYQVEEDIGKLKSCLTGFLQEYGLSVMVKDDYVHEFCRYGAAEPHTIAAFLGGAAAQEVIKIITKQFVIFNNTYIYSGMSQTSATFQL
Assay: Nedd8-Activating Enzyme (NAE) HTRF Assay
Format: biochemical
Conditions: threshold statement: less than or equal to 100 nM; 20 μM ATP, 90 minutes at 24° C.
Protocol: Following manufacturer instructions, baculoviruses were generated with the Bac-to-Bac Expression System (Invitrogen) for the following proteins: untagged NAEα (APPBP1; NP_003896.1), N-terminally His-tagged NAEβ (UBE1C; NP_003959.3), untagged SAEα (SAE1; NP_005491.1), N-terminally His-tagged SAEβ (UBA2; NP_005490.1), N-terminally His-tagged murine UAE (UBE1X; NP_033483). NAEα/His-NAEβ and SAEα/His-SAEβ complexes were generated by co-infection of Sf9 cells, which were harvested after 48 hours. His-mUAE was generated by single infection of Sf9 cells and harvested after 72 hours. Expressed proteins were purified by affinity chromatography (Ni—NTA agarose, Qiagen) using standard buffers. Ubc12 (UBE2M; NP_003960.1), Ubc9 (UBE2I; NP_003336.1), Ubc2 (UBE2A; NP_003327.2) were subcloned into pGEX (Pharmacia) and expressed as N-terminally GST tagged fusion proteins in E. coli. Expressed proteins were purified by conventional affinity chromatography using standard buffers. Nedd8 (NP_006147), Sumo-1 (NP_003343) and Ubiquitin (with optimized codons) were subcloned into pFLAG-2 (Sigma) and expressed as N-terminally Flag tagged fusion proteins in E. coli. Expressed proteins were purified by conventional chromatography using standard buffers. Nedd8-Activating Enzyme (NAE) HTRF Assay. The NAE enzymatic reaction totaled 50 μL and contained 50 mM HEPES (pH 7.5), 0.05% BSA, 5 mM MgCl2, 20 μM ATP, 250 μM GSH, 0.01 μM Ubc12-GST, 0.075 μM Nedd8-Flag and 0.28 nM recombinant human NAE enzyme. The enzymatic reaction mixture, with and without compound inhibitor, was incubated at 24° C. for 90 minutes in a 384-well plate before termination with 25 μL of Stop/Detection buffer (0.1M HEPES pH 7.5, 0.05% Tween20, 20 mM EDTA, 410 mM KF, 0.53 nM Europium-Cryptate labeled monoclonal anti-FLAG M2 antibody (CisBio International) and 8.125 μg/mL PHYCOLINK goat anti-GST allophycocyanin (XL-APC) antibody (Prozyme)). After incubation for 3 hours at 24° C., quantification of the FRET was performed on the Analyst™ HT 96.384 (Molecular Devices).

| pIC50 | SMILES |
| --- | --- |
| ≥ 7.00 | NS(=O)(=O)OCC[C@@H]1C[C@@H](n2ccc3c(N[C@H]4CCc5ccccc54)ncnc32)C[C@@H]1O [Compound I-76, 2-((1S,2S,4R)-4-{4-[(1S)-2,3-dihydro-1H-inden-1-ylamino]-7H-pyrrolo[2,3-d]pyrimidin-7-yl}-2-hydroxycyclopentyl)ethyl sulfamate] |
| ≥ 7.00 | NS(=O)(=O)OC[C@@H]1C[C@@H](n2ccc3c(NCc4ccc(Cl)cc4)ncnc32)[C@H](O)[C@@H]1O [Compound I-22, ((1S,2R,3S,4R)-4-{4-[(4-chlorobenzyl)amino]-7H-pyrrolo[2,3-d]pyrimidin-7-yl)-2,3-dihydroxycyclopentyl)methyl sulfamate] |
| ≥ 7.00 | COC[C@H]1Cc2ccccc2C1Nc1ncnc2c1ccn2[C@@H]1C[C@@H](COS(N)(=O)=O)[C@@H](O)C1 (stereo in doubt) [Compound I-80, [(1S,2S,4R)-2-hydroxy-4-(4-{[(1S,2S)-2-(methoxymethyl)-2,3-dihydro-1H-inden-1-yl]amino}-7H-pyrrolo[2,3-d]pyrimidin-7-yl)cyclopentyl]methyl sulfamate] |
| ≥ 7.00 | Nc1ncnc2c1ccn2[C@@H]1C[C@@H](COS(N)(=O)=O)[C@@H](O)C1 [Compound I-18, [(1S,2S,4R)-4-(4-amino-7H-pyrrolo[2,3-d]pyrimidin-7-yl)-2-hydroxycyclopentyl]methyl sulfamate] |
| ≥ 7.00 | NS(=O)(=O)OC[C@@H]1C[C@@H](n2ccc3c(CCc4ccccc4)ncnc32)C[C@@H]1O [Compound I-28, {(1S,2S,4R)-2-hydroxy-4-[4-(2-phenylethyl)-7H-pyrrolo[2,3-d]pyrimidin-7-yl]-cyclopentyl}methyl sulfamate] |
| ≥ 7.00 | NS(=O)(=O)OC[C@@H]1C[C@@H](n2ccc3c(OCc4ccc(Cl)cc4)ncnc32)C[C@@H]1O [Compound I-34, ((1S,2S,4R)-4-{4-[(4-chlorobenzyl)oxy]-7H-pyrrolo[2,3-d]pyrimidin-7-yl}-2-hydroxycyclopentyl)methyl sulfamate] |
| ≥ 7.00 | NS(=O)(=O)OC[C@@H]1C[C@@H](n2ccc3c(NCC4CCCCC4)ncnc32)C[C@@H]1O [Compound I-29, ((1S,2S,4R)-4-{4-[(cyclohexylmethyl)amino]-7H-pyrrolo[2,3-d]pyrimidin-7-yl)-2-hydroxycyclopentyl)methyl sulfamate] |
| ≥ 7.00 | NS(=O)(=O)OC[C@@H]1C[C@@H](n2ccc3c(NCc4ccccc4)ncnc32)C[C@@H]1O [Compound I-49, {(1S,2S,4R)-4-[4-(benzylamino)-7H-pyrrolo[2,3-d]pyrimidin-7-yl]-2-hydroxycyclopentyl}methyl sulfamate] |
| ≥ 7.00 | CC[C@@H]1Cc2ccccc2[C@@H]1Nc1ncnc2c1ccn2[C@@H]1C[C@@H](COS(N)(=O)=O)[C@@H](O)C1 [Compound I-83, [(1S,2S,4R)-4-(4-{[(1R,2R)-2-ethyl-2,3-dihydro-1H-inden-1-yl]amino}-7H-pyrrolo[2,3-d]pyrimidin-7-yl)-2-hydroxycyclopentyl]methyl sulfamate] |
| ≥ 7.00 | CC[C@H]1Cc2ccccc2[C@H]1Nc1ncnc2c1ccn2[C@@H]1C[C@@H](COS(N)(=O)=O)[C@@H](O)C1 [Compound I-84, [(1S,2S,4R)-4-(4-{[(1S,2S)-2-ethyl-2,3-dihydro-1H-inden-1-yl]amino}-7H-pyrrolo[2,3-d]pyrimidin-7-yl)-2-hydroxycyclopentyl]methyl sulfamate] |
| ≥ 7.00 | C[C@]1(O)C[C@H](n2ccc3c(N[C@H]4CCc5ccccc54)ncnc32)C[C@H]1COS(N)(=O)=O [Compound I-30, ((1S,2S,4R)-4-{4-[(1S)-2,3-dihydro-1H-inden-1-ylamino]-7H-pyrrolo[2,3-d]-pyrimidin-7-yl}-2-hydroxy-2-methylcyclopentyl)methyl sulfamate] |
| ≥ 7.00 | C[C@H]1Cc2ccccc2[C@H]1Nc1ncnc2c1ccn2[C@@H]1C[C@@H](COS(N)(=O)=O)[C@@H](O)C1 [Compound I-82, [(1S,2S,4R)-2-hydroxy-4-(4-{[(1S,2S)-2-methyl-2,3-dihydro-1H-inden-1-yl]amino}-7H-pyrrolo[2,3-d]pyrimidin-7-yl)cyclopentyl]methyl sulfamate] |
| ≥ 7.00 | NS(=O)(=O)OC[C@@H]1C[C@@H](n2ccc3c(NCc4ccccc4Cl)ncnc32)C[C@@H]1O [Compound I-1, ((1S,2S,4R)-4-{4-[(2-chlorobenzyl)amino]-7H-pyrrolo[2,3-d]pyrimidin-7-yl}-2-hydroxycyclopentyl)methyl sulfamate] |
| ≥ 7.00 | NS(=O)(=O)OC[C@@H]1C[C@@H](n2ccc3c(N[C@H]4CCc5c(F)ccc(F)c54)ncnc32)C[C@@H]1O [Compound I-62, [(1S,2S,4R)-4-(4-{[(1S)-4,7-difluoro-2,3-dihydro-1H-inden-1-yl]amino}-7H-pyrrolo[2,3-d]pyrimidin-7-yl)-2-hydroxycyclopentyl]methyl sulfamate] |
| ≥ 7.00 | NS(=O)(=O)NC[C@@H]1C[C@@H](n2ccc3c(N[C@H]4CCc5ccccc54)ncnc32)C[C@@H]1O [Compound I-56, N-[((1S,2S,4R)-4-{4-[(1S)-2,3-dihydro-1H-inden-1-ylamino]-7H-pyrrolo[2,3-d]-pyrimidin-7-yl}-2-hydroxycyclopentyl)methyl]sulfamide] |
| ≥ 7.00 | NS(=O)(=O)OC[C@@H]1C[C@@H](n2ccc3c(NCc4cc(Cl)cc(Cl)c4)ncnc32)C[C@@H]1O [Compound I-16, ((1S,2S,4R)-4-{4-[(3,5-dichlorobenzyl)amino]-7H-pyrrolo[2,3-d]pyrimidin-7-yl}-2-hydroxycyclopentyl)methyl sulfamate] |
| ≥ 7.00 | NS(=O)(=O)OC[C@@H]1C[C@@H](n2ccc3c(N[C@@H]4c5ccccc5C[C@@H]4O)ncnc32)C[C@@H]1O [Compound I-71, [(1S,2S,4R)-2-hydroxy-4-(4-{[(1R,2S)-2-hydroxy-2,3-dihydro-1H-inden-1-yl]amino}-7H-pyrrolo[2,3-d]pyrimidin-7-yl)cyclopentyl]methyl sulfamate] |
| ≥ 7.00 | NS(=O)(=O)OC[C@@H]1C[C@@H](n2ccc3c(N[C@H]4CCc5c(Br)cccc54)ncnc32)C[C@@H]1O [Compound I-65, [(1S,2S,4R)-4-(4-{[(1S)-4-bromo-2,3-dihydro-1H-inden-1-yl]amino}-7H-pyrrolo[2,3-d]pyrimidin-7-yl)-2-hydroxycyclopentyl]methyl sulfamate] |
| ≥ 7.00 | CO[C@H]1CCc2ccccc2[C@H]1Nc1ncnc2c1ccn2[C@@H]1C[C@@H](COS(N)(=O)=O)[C@@H](O)C1 [Compound I-85, [(1S,2S,4R)-2-hydroxy-4-(4-{[(1R,2S)-2-methoxy-1,2,3,4-tetrahydronaphthalen-1-yl]amino}-7H-pyrrolo[2,3-d]pyrimidin-7-yl)cyclopentyl]methyl sulfamate] |
| ≥ 7.00 | NS(=O)(=O)OC[C@@H]1C[C@@H](n2ccc3c(NCc4ccc(Cl)cc4C(F)(F)F)ncnc32)C[C@@H]1O [Compound I-42, [(1S,2S,4R)-4-(4-{[4-chloro-2-(trifluoromethyl)benzyl]amino}-7H-pyrrolo[2,3-d]-pyrimidin-7-yl)-2-hydroxycyclopentyl]methyl sulfamate] |
